Results published in patent US11066409B2, “Bicyclic nitrogen-containing heterocyclic derivatives and pharmaceutical composition comprising the same” (Shionogi & Co., Ltd., priority 2016, dated 2021).

Molecular target: human P2X7 receptor (Homo sapiens (Human), UniProt Q99572, R270H)
Test: Evaluation of a human P2X7 receptor inhibitory activity (Yo-Pro uptake, BzATP stimulation, FLIPR TETRA)
Assay type: cell-based
Details: 1321N1 cells stably expressing human P2X7 receptor, Yo-Pro fluorescence
Method in brief: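 1321N1 cells stably expressing human P2X7 (T606C/G952A SNP variant) in HBSS/HEPES pH 7.4–7.5 were loaded with Yo-Pro and stimulated with BzATP on FLIPR TETRA. Compound was added 8 min later and fluorescence followed for 20 min. Inhibition scaled between no-compound (0%) and reference compound (100%); IC50 by logistic fit, reported in bins A–D.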

Sequence of human P2X7 receptor (Q99572 whole entry R270H): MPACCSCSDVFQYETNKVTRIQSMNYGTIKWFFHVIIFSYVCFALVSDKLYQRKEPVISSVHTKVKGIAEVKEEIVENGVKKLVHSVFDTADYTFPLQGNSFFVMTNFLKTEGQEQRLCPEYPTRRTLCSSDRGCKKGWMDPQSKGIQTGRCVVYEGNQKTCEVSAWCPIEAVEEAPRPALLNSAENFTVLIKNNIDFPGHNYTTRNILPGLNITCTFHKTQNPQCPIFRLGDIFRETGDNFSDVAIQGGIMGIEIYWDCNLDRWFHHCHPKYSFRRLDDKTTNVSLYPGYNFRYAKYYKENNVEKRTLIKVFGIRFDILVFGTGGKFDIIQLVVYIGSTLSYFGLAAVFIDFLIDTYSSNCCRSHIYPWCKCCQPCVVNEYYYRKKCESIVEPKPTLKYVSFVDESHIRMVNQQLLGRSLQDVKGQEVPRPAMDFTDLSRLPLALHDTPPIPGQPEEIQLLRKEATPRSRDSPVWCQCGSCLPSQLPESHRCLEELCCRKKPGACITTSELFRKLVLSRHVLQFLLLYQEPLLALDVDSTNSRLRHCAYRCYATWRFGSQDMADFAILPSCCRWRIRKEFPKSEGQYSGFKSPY

Row | SMILES | IC50 (class symbols) [nM] | IC50 [nM]
1 | Cc1ccc(C2=NCCO2)cc1NC1=NC(=O)N(C)C2=NCC(c3cc(F)c(F)c(F)c3)N12 (centres unmarked) [Compound I-0213] | 10 to 100 | 
2 | CCc1nc(OC)ccc1NC1=NC(=O)N(C)C2=NCC(c3cc(F)cc(F)c3)N12 (centres unmarked) [Compound I-0155] | 10 to 100 | 
3 | COc1cc(C)c(Nc2nc(=O)cc3n2C(c2ccc(F)c(Cl)c2)CC3)cc1OC (centres unmarked) [Compound I-0013] | < 10 | 
4 | Cc1ccc(C(F)(F)CO)cc1NC1=NC(=O)N(C)C2=NCC(c3cc(F)c(F)c(F)c3)N12 (centres unmarked) [Compound I-0206] | 10 to 100 | 
5 | COc1ccc(NC2=NC(=O)N(C)C3=NCC(c4ccc(F)cc4)N23)c(C)c1 (centres unmarked) [Compound I-0130] | 10 to 100 | 
6 | COCCc1ccc(C)c(NC2=NC(=O)N(C)C3=NCC(c4cc(F)c(F)c(F)c4)N23)c1 (centres unmarked) [Compound I-0202] | 10 to 100 | 
7 | Cc1ccc(CC(F)(F)CO)cc1NC1=NC(=O)N(C)C2=NCC(c3cc(F)c(F)c(F)c3)N12 (centres unmarked) [Compound I-0184] | 10 to 100 | 
8 | COc1cc(NC2=NC(=O)N(C)C3=NCC(c4ccc(F)c(F)c4)N23)c(C)nc1OC (centres unmarked) [Compound I-0116] | 100 to 500 | 
9 | CCc1cc(Nc2nc(=O)cc3n2C(c2ccccc2)CC3)c(C)cc1OC (centres unmarked) [Compound I-0039] | < 10 | 
10 | Cc1cc2c(cc1/N=c1\[nH]c(=O)c(F)c3n1C(c1ccc(F)cc1)CC3)COC2 (centres unmarked) [Compound I-0074] | < 10 | 
11 | Cc1c(Cl)cccc1Nc1nc(=O)cc2n1C(c1ccccc1)COC2 (single isomer, unassigned) [Compound I-0003] |  | 1.8
12 | COc1ccc(Nc2nc(=O)c(F)c3n2C(c2ccc(F)cc2F)CC3)c(C)c1 (centres unmarked) [Compound I-0064] | 10 to 100 | 
13 | COc1ccc(C)c(Nc2nc(=O)cc3n2C(c2ccccc2)CN3C)c1 (centres unmarked) [Compound I-0105] | 10 to 100 | 
14 | COc1ccc(/N=c2\[nH]c(=O)c(F)c3n2C(c2ccc(F)cc2F)CC3)c(C)n1 (centres unmarked) [Compound I-0068] | 10 to 100 | 
15 | Cc1ccccc1Nc1nc(=O)cc2n1C(c1ccccc1)CCC2 (centres unmarked) [Compound I-0004] |  | 37
16 | COc1nc(C)c(Nc2nc(=O)c(F)c3n2C(c2cc(F)cc(F)c2)CC3)cc1C (centres unmarked) [Compound I-0136] | 10 to 100 | 

Row | SMILES | IC50 (class symbols) [nM] | IC50 [nM]
17 | COc1ccc(/N=c2\[nH]c(=O)c(F)c3n2C(c2ccc(F)cc2F)CC3)c(C)n1 (centres unmarked) [Compound I-0093] | 100 to 500 | 
18 | Cc1c(Cl)cccc1Nc1nc(=O)cc2n1C(c1ccccc1)CC2 (centres unmarked) [Compound I-0007] | < 10 | 
19 | CCN1C(=O)N=C(Nc2ccc(OC)nc2C)N2C1=NCC2c1ccc(F)cc1 (centres unmarked) [Compound I-0117] | 100 to 500 | 
20 | COc1c2n(c(Nc3cc4sc(C)nc4cc3C)nc1=O)C(c1ccc(F)cc1)CC2 (centres unmarked) [Compound I-0036] | 10 to 100 | 
21 | COc1cc(/N=c2\[nH]c(=O)c(F)c3n2C(c2ccc(F)cc2F)CC3)c(C)cc1F (centres unmarked) [Compound I-0062] | 10 to 100 | 
22 | COc1ccc(NC2=NC(=O)N(C)C3=NCC(c4ccc(F)c(F)c4)N23)c(C)n1 (centres unmarked) [Compound I-0127] | 10 to 100 | 
23 | CCc1nc(OC)ccc1Nc1nc(=O)cc2n1C(c1cc(F)cc(F)c1)CC2 (centres unmarked) [Compound I-0059] | 10 to 100 | 11
24 | CCOc1nc(C)c(Nc2nc(=O)c(F)c3n2C(c2ccc(F)cc2F)CC3)cc1F (centres unmarked) [Compound I-0083] | 10 to 100 | 
25 | CN1C(=O)N=C(NCc2ccc(F)cc2)N2C1=NCC2c1cc(F)c(F)c(F)c1 (centres unmarked) [Compound I-0198] | 10 to 100 | 
26 | COc1ccc(Nc2nc(=O)cc3n2C(c2cc(F)c(F)c(F)c2)CC3)c(C)c1 (centres unmarked) [Compound I-0042] | < 10 | 
27 | Cc1nc2cc(C)c(Nc3nc(=O)c(F)c4n3C(c3ccc(F)cc3F)CC4)cc2s1 (centres unmarked) [Compound I-0058] | < 10 | 
28 | Cc1ccc(C=O)cc1NC1=NC(=O)N(C)C2=NCC(c3cc(F)c(F)c(F)c3)N12 (centres unmarked) [Compound I-0191] | 10 to 100 | 
29 | CCOc1ccc(Nc2nc(=O)cc3n2C(c2cc(F)cc(F)c2)CC3)c(C)n1 (centres unmarked) [Compound I-0055] | 10 to 100 | 
30 | Cc1ccc(CO)cc1NC1=NC(=O)N(C)C2=NCC(c3cc(F)nc(F)c3)N12 (centres unmarked) [Compound I-0195] | 10 to 100 | 
31 | Cc1nc2cc(C)c(NC3=NC(=O)N(C)C4=NCC(c5cc(F)c(F)c(F)c5)N34)cc2s1 (centres unmarked) [Compound I-0156] | 10 to 100 | 
